The record followed here is US12077555B2, “STAT degraders and uses thereof” (Kymera Therapeutics, Inc., priority 2019, dated 2024).

Like-named read-outs stand apart in the source and are kept apart here.

For the test, the target named is STAT3 (Homo sapiens, UniProt P40763). Description: STAT3 HiBiT degradation assay in transfected A549 cells. Set-up: expressed in transfected cells; host or cells: A549. It counts as cell-based. A digest of the protocol:
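Degradation read as HiBiT-tagged STAT3 luminescence (Nano-Glo lytic reagent, 10 min, room temperature) following 24 h compound treatment of transfected A549 cells at 3-fold, 10 points. Percent remaining signal computed against controls and fitted with a four-parameter logistic; DC50 reported as letter bins (A <0.01 to D >1.0 µM).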

[1] abbreviates: A549, 24 h; read-out: STAT3 HiBiT A549 degradation 24 h: Average external-Abs DC50.

A word on the DC50: it is the midpoint of the concentration-degradation curve.

Sequence of STAT3 (P40763 whole entry): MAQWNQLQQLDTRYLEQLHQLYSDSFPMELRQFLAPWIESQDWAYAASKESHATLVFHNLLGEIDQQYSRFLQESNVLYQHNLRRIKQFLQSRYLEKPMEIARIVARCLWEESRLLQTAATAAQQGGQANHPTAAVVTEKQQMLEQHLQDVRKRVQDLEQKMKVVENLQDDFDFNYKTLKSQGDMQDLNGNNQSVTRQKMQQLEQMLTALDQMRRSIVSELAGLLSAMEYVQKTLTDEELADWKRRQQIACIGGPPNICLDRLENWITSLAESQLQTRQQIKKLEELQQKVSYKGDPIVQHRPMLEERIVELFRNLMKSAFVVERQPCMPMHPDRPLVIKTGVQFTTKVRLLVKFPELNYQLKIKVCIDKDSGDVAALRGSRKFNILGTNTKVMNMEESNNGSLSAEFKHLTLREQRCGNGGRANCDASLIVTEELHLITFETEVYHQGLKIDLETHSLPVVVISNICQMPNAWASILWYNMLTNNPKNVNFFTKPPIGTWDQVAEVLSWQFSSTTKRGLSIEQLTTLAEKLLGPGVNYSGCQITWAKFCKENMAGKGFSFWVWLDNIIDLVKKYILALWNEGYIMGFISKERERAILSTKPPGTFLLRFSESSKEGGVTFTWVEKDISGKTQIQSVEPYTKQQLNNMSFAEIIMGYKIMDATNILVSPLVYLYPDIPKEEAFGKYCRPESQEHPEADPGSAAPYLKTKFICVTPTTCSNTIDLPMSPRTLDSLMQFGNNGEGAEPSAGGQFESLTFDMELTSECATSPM

Turning to `Cn1c(=O)n(C2CCC(=O)NC2=O)c2ccc(CC[C@H]3CC[C@@H](C(=O)N4CC[C@H]5CC[C@@H](C(=O)N[C@@H](CCC(N)=O)C(=O)NC(c6ccccc6)c6ccccc6)N5C(=O)[C@@H](NC(=O)c5cc6cc(C(=O)P(=O)(O)O)ccc6[nH]5)C4)CC3)cc21` (stereo partly drawn) [Compound I-202], the 50% degradation concentration (DC50) under setting [1] lay within 10 to 100 nM. Consider `Cn1c(=O)n(C2CCC(=O)NC2=O)c2ccc(CCCCCCOc3ccc4c5c3CC[C@H](NC(=O)c3cc6cc(C(=O)P(=O)(O)O)ccc6[nH]3)C(=O)N5[C@H](C(=O)N[C@@H](CCC(N)=O)C(=O)NC(c3ccccc3)c3ccccc3)C4)cc21` (stereo partly drawn) [Compound I-269, 2-[[(2S,11S)-2-[[(1S)-3-Carbamoyl-1-(diphenylmethylcarbamoyl)propyl]carbamoyl]-7-([6-[1-(2,6-dioxopiperidin-3-yl)-3-methyl-2-oxo-1,3-benzodiazol-5-yl]hexyl]oxy)-12-oxo-1-azatricyclo[6.4.1.0^[4,13]]trideca-4(13),5,7-trien-11-yl]carbamoyl]-1H-indole-5-carbonylphosphonic acid], for which the DC50 under setting [1] was greater than 1000 nM. On the same count and under the same terms, then `Cc1ncsc1-c1ccc([C@H](C)NC(=O)[C@@H]2C[C@@H](O)CN2C(=O)[C@@H](NC(=O)CCCCCc2cc(Cl)cc(OC[C@@H](NC(=O)[C@@H]3Cc4cccc5c4N3C(=O)[C@@H](NC(=O)c3cc4cc(C(=O)P(=O)(O)O)ccc4[nH]3)CC5)C(N)=O)c2)C(C)(C)C)cc1` [Compound I-204, 2-[[(2S,11S)-2-[[(2S)-4-carbamoyl-1-[3-chloro-5-(5-[[(2S)-1-[(2S,4R)-4-hydroxy-2-[[(1S)-1-[4-(4-methyl-1,3-thiazol-5-yl)phenyl]ethyl]carbamoyl]prrolidin-1-yl]-3,3-dimethyl-1-oxobutan-2-yl]carbamoyl]pentyl)phenoxy]butan-2-yl]carbamoyl]-12-oxo-1-azatricyclo[6.4.1.0^[4,13]]trideca-4(13),5,7-trien-11-yl]carbamoyl]-1H-indole-5-carbonylphosphonic acid], with 10 to 100 nM; and `Cc1ncsc1-c1ccc([C@H](C)NC(=O)[C@@H]2C[C@@H](O)CN2C(=O)[C@@H](NC(=O)CCCCCc2cccc(OC[C@@H](NC(=O)[C@@H]3Cc4cccc5c4N3C(=O)[C@@H](NC(=O)c3cc4cc(C(=O)P(=O)(O)O)ccc4[nH]3)CC5)C(N)=O)c2C)C(C)(C)C)cc1` [Compound I-205, diammonium 2-[[(2S,11S)-2-[[(2S)-4-carbamoyl-1-[3-[5-[[(2S)-1-[(2S,4R)-4-hydroxy-2-[[(1S)-1-[4-[4-methyl-1,3-thiazol-5-yl)phenyl]ethyl]carbamoyl]pyrrolidin-1-yl]-3,3-dimethyl-1-oxobutan-2-yl]carbamoyl]pentyl)-2-methylphenoxy]butan-2-yl]carbamoyl]-12-oxo-1-azatricyclo[6.4.1.0^[4,13]]trideca-4(13),5,7-trien-11-yl]carbamoyl]-1H-indole-5-carbonylphosphonate], with 10 to 100 nM.

For the molecule `Cc1ncsc1-c1ccc(CNC(=O)[C@@H]2C[C@@H](O)CN2C(=O)[C@@H](NC(=O)CC2CCN(c3ccc(CO[C@H](C)[C@H](CCC(N)=O)NC(=O)[C@@H]4Cc5cccc6c5N4C(=O)[C@@H](NC(=O)c4cc5cc(C(=O)P(=O)(O)O)ccc5[nH]4)CC6)cc3)CC2)C(C)(C)C)cc1` [Compound I-162, diammonium 2-[[(2S,11S)-2-[[(3S,4R)-1-carbamoyl-4-([4-[4-([[(2S)-1-[(2S,4R)-4-hydroxy-2-([[4-(4-methyl-1,3-thiazol-5-yl)phenyl]methyl]carbamoyl)pyrrolidin-1-yl]-3,3-dimethyl-1-oxobutan-2-yl]carbamoyl]methyl)piperidin-1-yl]phenyl]methoxy)pentan-3-yl]carbamoyl]-12-oxo-1-azatricyclo[6.4.1.0^[4,13]]trideca-4(13),5,7-trien-11-yl]carbamoyl]-1H-indole-5-carbonylphosphonate], the 50% degradation concentration (DC50) under setting [1] is greater than 1000 nM. Take `Cn1c(=O)n(C2CCC(=O)NC2=O)c2ccc(CCCCCCC(=O)N3CC[C@H]4CC[C@@H](C(=O)N[C@@H](CCC(N)=O)C(=O)NCc5ccc(S(C)(=O)=O)cc5)N4C(=O)[C@@H](NC(=O)c4cc5cc(C(=O)P(=O)(O)O)ccc5[nH]4)C3)cc21` (stereo partly drawn) [Compound I-288, 2-[[(5S,8S,10aR)-8-[[(1S)-3-carbamoyl-1-[[(4-methanesulfonylphenyl)methyl]carbamoyl]propyl]carbamoyl]-3-[7-[1-(2,6-dioxopiperidin-3-yl)-3-methyl-2-oxo-1,3-benzodiazol-5-yl]heptanoyl]-6-oxo-octahydropyrrolo[1,2-a][1,5]diazocin-5-yl]carbamoyl]-1H-indole-5-carbonylphosphonic acid]: the DC50 under setting [1] was 10 to 100 nM. In the case of `Cc1ncsc1-c1ccc([C@H](C)NC(=O)[C@@H]2C[C@@H](O)CN2C(=O)[C@@H](NC(=O)CCCCCc2cccc(CNC(=O)[C@H](CCC(N)=O)NC(=O)[C@@H]3Cc4cccc5c4N3C(=O)[C@@H](NC(=O)c3cc4cc(C(=O)P(=O)(O)O)ccc4[nH]3)CC5)c2)C(C)(C)C)cc1` [Compound I-220, 2-[[(2S,11S)-2-[[(1S)-3-carbamoyl-1-([[3-(5[[(2S)-1-[(2S,4R)-4-hydroxy-2-[[(1S)-1-[4-(4-methyl-1,3-thiazol-5-yl)phenyl]ethyl]carbamoyl]pyrrolidin-1-yl]-3,3-dimethyl-1-oxobutan-2-yl]carbamoyl]pentyl)phenyl]methyl]carbamoyl)propyl]carbamoyl]-12-oxo-1-azatricyclo[6.4.1.0^[4,13]]trideca-4(13),5,7-trien-11-yl]carbamoyl]-1H-indole-5-carbonylphosphonic acid], the 50% degradation concentration (DC50) under setting [1] fell in the range of 100 to 1000 nM. Still for that read-out and setting: for `Cn1c(=O)n(C2CCC(=O)NC2=O)c2cccc(CCCC(=O)N3CC[C@H]4CC[C@@H](C(=O)N[C@@H](CCC(N)=O)C(=O)NC(c5ccccc5)c5ccccc5)N4C(=O)[C@@H](NC(=O)c4cc5cc(C(=O)P(=O)(O)O)ccc5[nH]4)C3)c21` (stereo partly drawn) [Compound I-122, 2-[[(5S,8S,10aR)-8-[[(1S)-3-carbamoyl-1-(diphenylmethylcarbamoyl)propyL]carbamoyl]-3-[4-[1-(2,6-dioxopiperidin-3-yl)-3-methyl-2-oxo-1,3-benzodiazol-4-yl]butanoyl]-6-oxo-octahydropyrrolo[1,2-a][1,5]diazocin-5-yl]carbamoyl]-1H-indole-5-carbonylphosphonic acid] the value was greater than 1000 nM.

On to `Cc1ncsc1-c1ccc([C@H](C)NC(=O)[C@@H]2C[C@@H](O)CN2C(=O)[C@@H](NC(=O)CCCCCc2cccc(OC[C@H](CCC(N)=O)NC(=O)[C@@H]3CCCN3C(=O)[C@H](CC(C)C)NC(=O)c3cc4cc(C(=O)P(=O)(O)O)ccc4[nH]3)c2F)C(C)(C)C)cc1` [Compound I-279], for which, under setting [1], the DC50 is less than 10 nM. Turning to `Cn1c(=O)n(C2CCC(=O)NC2=O)c2ccc(C3CC(CCCC(=O)N4CC[C@H]5CC[C@@H](C(=O)N[C@@H](CCC(N)=O)C(=O)NC(c6ccccc6)c6ccccc6)N5C(=O)[C@@H](NC(=O)c5cc6cc(C(=O)P(=O)(O)O)ccc6[nH]5)C4)C3)cc21` (stereo partly drawn) [Compound I-228, 2-[[(5S,8S,10aR)-8-[[(1S)-3-carbamoyl-1-(diphenylmethylcarbamoyl)propyl]carbamoyl]-3-(4-[3-[1-(2,6-dioxopiperidin-3-yl)-3-methyl-2-oxo-1,3-benzodiazol-5-yl]cyclobutyl]butanoyl)-6-oxo-octahydropyrrolo[1,2-a][1,5]diazocin-5-yl]carbamoyl]-1H-indole-5-carbonylphosphonic acid], the DC50 under setting [1] lay within 100 to 1000 nM. Same read-out and setting: then `Cc1ncsc1-c1ccc([C@H](C)NC(=O)[C@@H]2C[C@@H](O)CC2C(=O)[C@@H](NC(=O)OCCCCc2cccc(N(C)CC(CCC(N)=O)NC(=O)[C@@H]3Cc4cccc5c4N3C(=O)[C@@H](NC(=O)c3cc4cc(C(=O)P(=O)(O)O)ccc4[nH]3)CC5)c2F)C(C)(C)C)cc1` (stereo partly drawn) [Compound I-254], with 100 to 1000 nM. As for `Cn1c(=O)n(C2CCC(=O)NC2=O)c2cc(CCCCCCC(=O)N3CC[C@H]4CC[C@@H](C(=O)N[C@@H](CCC(N)=O)C(=O)NC(c5ccccc5)c5ccccc5)N4C(=O)[C@@H](NC(=O)c4cc5cc(C(=O)P(=O)(O)O)ccc5[nH]4)C3)ccc21` (stereo partly drawn) [Compound I-134, 2-[[(5S,8S,10aR)-8-[[(1S)-3-carbamoyl-1-(diphenylmethylcarbamoyl)propyl]carbamoyl]-3-[7-[3-(2,6-dioxopiperidin-3-yl)-1-methyl-2-oxo-1,3-benzodiazol-5-yl]heptanoyl]-6-oxo-octahydropyrrolo[1,2-a][1,5]diazocin-5-yl]carbamoyl]-1H-indole-5-carbonylphosphonic acid], the DC50 (read-out: STAT3 HiBiT A549 degradation 24 h: Average external-Abs DC50; A549, 24 h) was greater than 1000 nM. Turning to `C/C(=C\C(=O)N[C@H]1CCc2cccc3c2N(C1=O)[C@H](C(=O)N[C@@H](CCC(N)=O)[C@@H](C)OCc1ccc(CCCCC(=O)N[C@H](C(=O)N2C[C@H](O)C[C@H]2C(=O)N[C@@H](C)c2ccc(-c4scnc4C)cc2)C(C)(C)C)cc1)C3)c1cccc(C(F)(F)P(=O)(O)O)c1` [Compound I-142], under setting [1], the half-maximal degradation concentration (DC50) is greater than 1000 nM.

With `CN1C(=O)CCC(n2c(=O)n(C)c3cc(CCCCCCC(=O)N4CC[C@H]5CC[C@@H](C(=O)N[C@@H](CCC(N)=O)C(=O)NC(c6ccccc6)c6ccccc6)N5C(=O)[C@@H](NC(=O)c5cc6cc(C(=O)P(=O)(O)O)ccc6[nH]5)C4)ccc32)C1=O` (stereo partly drawn) [Compound I-150, 2-[[(5S,8S,10aR)-8-[[(1S)-3-carbamoyl-1-(diphenylmethylcarbamoyl)propyl]carbamoyl]-3-[7-[3-methyl-1-(1-methyl-2,6-dioxopiperidin-3-yl)-2-oxo-1,3-benzodiazol-5-yl]heptanoyl]-6-oxo-octahydropyrrolo[1,2-a][1,5]diazocin-5-yl]carbamoyl]-1H-indole-5-carbonylphosphonic acid], the 50% degradation concentration (DC50) under setting [1] was greater than 1000 nM. On to `CC(=O)N1CC[C@H]2CC[C@@H](C(=O)N[C@@H](CCC(=O)O)COc3cc(C)cc(CCCC(=O)N[C@H](C(=O)N4C[C@H](O)C[C@H]4C(=O)N[C@@H](C)c4ccc(-c5scnc5C)cc4)C(C)(C)C)c3F)N2C(=O)[C@@H](NC(=O)c2cc3cc(C(=O)P(=O)(O)O)ccc3[nH]2)C1` [Compound I-290], for which the 50% degradation concentration (DC50) under setting [1] is less than 10 nM.
